66 compounds from patent US8981092B2, “Substituted 3,4-dihydro-2H-pyrrolo[1,2-a]pyrazin-1-ones as modulators of protein kinase activity” (Nerviano Medical Sciences S.r.l., priority 2008, dated 2015) can be followed below.

As a reminder, the IC50 is the midpoint of a concentration-inhibition curve.

The test deals with Full-length human PIM-1 (Homo sapiens, UniProt P11309). The following applies: read-out: PIM-1 IC50; ATP 200 μM, Aktide 25 μM, enzyme 1 nM.
Full-length human PIM-1, sequence (P11309 whole entry): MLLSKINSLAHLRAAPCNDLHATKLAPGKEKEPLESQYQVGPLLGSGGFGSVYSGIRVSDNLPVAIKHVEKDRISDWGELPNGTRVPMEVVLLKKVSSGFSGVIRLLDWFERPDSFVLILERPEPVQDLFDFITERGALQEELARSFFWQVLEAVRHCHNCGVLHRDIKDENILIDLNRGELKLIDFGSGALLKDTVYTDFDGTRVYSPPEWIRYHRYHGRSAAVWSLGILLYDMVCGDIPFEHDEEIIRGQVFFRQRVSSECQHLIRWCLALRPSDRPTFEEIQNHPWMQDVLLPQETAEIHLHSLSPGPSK
Description: Biochemical Assay for Inhibitors of PIM-1 Kinase Activity
The inhibitory activity of putative kinase inhibitors and the potency of selected compounds were determined using a trans-phosphorylation assay.
Specific peptide or protein substrates are trans-phosphorylated by their specific ser-thr or tyr kinase in the presence of ATP traced with ^33P-γ-ATP, and in the presence of their own optimal buffer and cofactors.
At the end of the phosphorylation reaction, more than 98% unlabeled ATP and radioactive ATP is captured by an excess of the ion exchange dowex resin; the resin then settles down to the bottom of the reaction plate by gravity.
Supernatant is subsequently withdrawn and transferred into a counting plate, then evaluated by β-counting.
The buffer for PIM-1 assay was composed of HEPES 50 mM, at pH 7.5, with 10 mM MgCl2, 1 mM DTT, 3 μM NaVO3, and 0.2 mg/ml BSA
ATP concentration: 200 μM
Enzyme concentration: 1 nM
The test mix consisted of:
1) 3× Enzyme mix (done in Kinase Buffer 3×), 5 μL/well
2) 3× substrate and ATP mix (done in ddH2O), together with ^33P-γ-ATP, 5 μL/well
3) 3× test compounds (diluted into ddH2O-3% DMSO)-5 μL/well
a) for percent inhibition studies (HTS), individual dilution plates at 1 mM are diluted at a 3× concentration (30 μM) in ddH2O (3% DMSO=final concentration) using a Beckman NX automated pipetting platform. The same instrument is used for distributing the diluted mother plates into the test plates.
An automated station for serial dilutions (Biomek FX, Beckman) is used for producing 1:3 dilutions in 100% DMSO, from line A1 to A10, and for all the seven compounds in the column.
At the start of the run, the robot aspirates 5 μL of ATP mix, makes an air gap inside the tips (2 μL) and aspirates 2 μL of PIM mix. The following dispensation into the plates allows the kinase reaction to start upon 3 cycles of mixing, done by the robot itself.
The robot incubates the plates for 60 minutes at room temperature, and then stops the reaction by pipetting 70 μL of dowex resin suspension into the reaction mix. Three cycles of mixing are done immediately after the addition of the resin.
Another mixing cycle is performed after all the plates are stopped, this time using normal tips: the plates are then allowed to rest for about one hour in order to maximize ATP capture.
Data are analysed by an internally customized version of the SW package “Assay Explorer” that provides either % inhibition for primary assays or sigmoidal fittings of the ten-dilutions curves for IC50 determination in the secondary assays/hit confirmation routines.
Regarding `O=C(C[C@@H]1CNC(=O)c2cc(-c3ccnc(F)c3)cn21)N[C@H](CO)C1CCCCC1` [A157-M-B61 isomer R], the IC50 worked out at 270 nM.

For the compound `C=CCN1CCN(C(=O)CC2CNC(=O)c3cc(-c4cccc(Cl)c4)cn32)CC1` (stereo not drawn) [Compound A150-M-B49], the IC50 amounted to 230 nM.

Consider `O=C(C[C@H]1CNC(=O)c2cc(-c3cccc(F)c3)cn21)N[C@H](CO)c1ccccc1` [A127-M-B62 isomer S], for which the IC50 turned out to be 90 nM.

Consider `O=C(CC1CNC(=O)c2cc(-c3cccc(C(F)(F)F)c3)cn21)NCc1ccc(F)cc1` (stereo not drawn) [Compound A133-M-B30], for which the IC50 turned out to be 610 nM.

In the case of `O=C(CC1CNC(=O)c2cc(-c3cn[nH]c3)cn21)NCc1ccccc1` (stereo not drawn) [Compound A144-M-B14], the concentration for half-maximal inhibition (IC50) was not below 10000 nM.

On to `Cc1ccccc1NC(=O)CC1CNC(=O)c2cc(-c3cccc(Cl)c3)cn21` (stereo not drawn) [Compound A150-M-B36], for which the IC50 was found to be 1390 nM.

Take `O=C(C[C@@H]1CNC(=O)c2cc(-c3ccnc(F)c3)cn21)N[C@H](CO)c1ccccc1` [A157-M-B62 isomer R]: the IC50 was 1140 nM.

For `CCCNC(=O)CC1CNC(=O)c2cc(-c3cccc(Cl)c3)cn21` (stereo not drawn) [Compound A150-M-B25], the IC50 was found to be 450 nM.

As for `O=C(C[C@@H]1CNC(=O)c2cc(-c3cccc(C(F)(F)F)c3)cn21)N[C@H](CO)Cc1ccccc1` [A133-M-B64 isomer R], the IC50 is 2040 nM.

As for `O=C(CC1CNC(=O)c2cc(-c3cccc(Cl)c3)cn21)NCC1CC1` (stereo not drawn) [Compound A150-M-B48], the IC50 came out at 120 nM.

On to `O=C(CC1CNC(=O)c2cc(-c3ccsc3)cn21)NCC1CCCCC1` (stereo not drawn) [Compound A33-M-B22], for which the IC50 is 460 nM.

On to `O=C(CC1CNC(=O)c2cc(-c3ccc(F)c(F)c3)cn21)NCc1ccncc1` (stereo not drawn) [Compound A139-M-B39], for which the IC50 was 980 nM.

For the compound `CC(C)CCNC(=O)CC1CNC(=O)c2cc(-c3ccc(F)cc3F)cn21` (stereo not drawn) [Compound A151-M-B32], the IC50 came to 490 nM.

As to `CC(C)(C)NC(=O)CC1CNC(=O)c2cc(-c3cccc(Cl)c3)cn21` (stereo not drawn) [Compound A150-M-B43], the half-inhibitory concentration (IC50) turned out to be 790 nM.

Consider `NC[C@@H](NC(=O)C[C@H]1CNC(=O)c2cc(-c3cccc(F)c3)cn21)c1ccccc1` [A127-M-B65 isomer S], for which the IC50 turned out to be 10 nM.

Consider `COC(=O)c1cccc(-c2cc3n(c2)C(CC(=O)NCc2cccc(F)c2)CNC3=O)c1` (stereo not drawn) [Compound A142-M-B30], for which the IC50 came out at 2520 nM.

`CN1CCN(C(=O)CC2CNC(=O)c3cc(-c4ccnc(F)c4)cn32)C(c2ccccc2)C1` (mixture of isomers) [Compound A157-M-B63]: the IC50 amounted to 690 nM.

Regarding `O=C(CC1CNC(=O)c2cc(-c3cn[nH]c3)cn21)NCC1CCCCC1` (stereo not drawn) [Compound A144-M-B22], the IC50 worked out at 480 nM.

`O=C(CC1CNC(=O)c2cc(-c3cccc(Cl)c3)cn21)NCCN1CCOCC1` (stereo not drawn) [Compound A150-M-B38]: the IC50 worked out at 1060 nM.

Consider `O=C(CC1CNC(=O)c2cc(-c3ccc(F)cc3F)cn21)NCc1ccncc1` (stereo not drawn) [Compound A151-M-B39], for which the IC50 worked out at 4110 nM.

Turning to `O=C(C[C@@H]1CNC(=O)c2cc(-c3cccc(F)c3)cn21)N[C@H](CO)Cc1ccccc1` [A127-M-B64 isomer R], the IC50 was found to be 2910 nM.

On to `O=C(C[C@@H]1CNC(=O)c2cc(-c3ccnc(F)c3)cn21)N[C@H](CO)Cc1ccccc1` [A157-M-B64 isomer R], for which the IC50 amounted to 700 nM.

For `O=C(C[C@@H]1CNC(=O)c2cc(-c3cccc(C(F)(F)F)c3)cn21)N[C@H](CO)C1CCCCC1` [A133-M-B61 isomer R], the IC50 worked out at 5940 nM.

Turning to `CN1CCN(C(=O)CC2CNC(=O)c3cc(-c4cccc(F)c4)cn32)C(c2ccccc2)C1` (mixture of isomers) [Compound A127-M-B63], the IC50 came to 390 nM.

As for `O=C(CC1CNC(=O)c2cc(-c3ccc(F)c(F)c3)cn21)NCC1CCCCC1` (stereo not drawn) [Compound A139-M-B22], the IC50 was 90 nM.

For the compound `O=C(CC1CNC(=O)c2cc(-c3cccc(Cl)c3)cn21)NC1CCCC1` (stereo not drawn) [Compound A150-M-B26], the IC50 was determined as 240 nM.

Consider `O=C(CC1CNC(=O)c2cc(-c3cccc(F)c3)cn21)NCc1ccncc1` (stereo not drawn) [Compound A127-M-B39], for which the IC50 is 570 nM.

For `O=C(C[C@H]1CNC(=O)c2cc(-c3cccc(F)c3)cn21)N[C@H](CO)C1CCCCC1` [A127-M-B61 isomer S], the IC50 was 20 nM.

As for `O=C(CC1CNC(=O)c2cc(-c3ccc(F)c(F)c3)cn21)NCc1ccc(F)cc1` (stereo not drawn) [Compound A139-M-B30], the IC50 amounted to 410 nM.

Consider `O=C(CC1CNC(=O)c2cc(-c3cccc(OC(F)(F)F)c3)cn21)NCc1ccccc1` (stereo not drawn) [Compound A134-M-B14], for which the IC50 was found to be 720 nM.

As for `O=C(CC1CNC(=O)c2cc(-c3ccc(F)c(F)c3)cn21)NCc1ccco1` (stereo not drawn) [Compound A139-M-B40], the IC50 is 130 nM.

As to `O=C(CC1CNC(=O)c2cc(-c3cccc(C(F)(F)F)c3)cn21)NCC1CCCCC1` (stereo not drawn) [Compound A133-M-B22], the IC50 stood at 380 nM.

As for `CC(C)CCNC(=O)CC1CNC(=O)c2cc(-c3ccccc3F)cn21` (stereo not drawn) [Compound A128-M-B32], the IC50 amounted to 700 nM.

With `O=C(CC1CNC(=O)c2cc(-c3ccc4c(c3)OCO4)cn21)NCC1CCCCC1` (stereo not drawn) [Compound A132-M-B22], the IC50 came out at 360 nM.

As for `O=C(CC1CNC(=O)c2cc(-c3ccc(F)cc3F)cn21)NCc1ccccc1` (stereo not drawn) [Compound A151-M-B14], the IC50 was determined as 100 nM.

Take `O=C(CC1CNC(=O)c2cc(-c3cccc(OC(F)(F)F)c3)cn21)NCc1cccc(F)c1` (stereo not drawn) [Compound A134-M-B30]: the IC50 amounted to 890 nM.

Take `O=C(CC1CNC(=O)c2cc(-c3ccccc3F)cn21)NCC1CCCCC1` (stereo not drawn) [Compound A128-M-B22]: the IC50 is 120 nM.

With `O=C(CC1CNC(=O)c2cc(-c3ccccc3F)cn21)NCc1ccncc1` (stereo not drawn) [Compound A128-M-B39], the IC50 worked out at 540 nM.

As for `O=C(CC1CNC(=O)c2cc(-c3cccc(Cl)c3)cn21)NC1CCCCC1` (stereo not drawn) [Compound A150-M-B24], the IC50 is 210 nM.

On to `O=C(C[C@H]1CNC(=O)c2cc(-c3cccc(C(F)(F)F)c3)cn21)N[C@H](CO)c1ccccc1` [A133-M-B62 isomer S], for which the IC50 was 130 nM.

For the compound `NC[C@@H](NC(=O)C[C@H]1CNC(=O)c2cc(-c3cccc(C(F)(F)F)c3)cn21)c1ccccc1` [A133-M-B65 isomer S], the IC50 came out at 50 nM.

As for `O=C(CC1CNC(=O)c2cc(-c3cccc(Cl)c3)cn21)NCc1ccncc1` (stereo not drawn) [Compound A150-M-B39], the IC50 was determined as 220 nM.

In the case of `O=C(C[C@@H]1CNC(=O)c2cc(-c3cc(F)ccc3F)cn21)N[C@H](CO)c1ccccc1` [A158-M-B62 isomer R], the IC50 was 550 nM.

On to `O=C(C[C@H]1CNC(=O)c2cc(-c3cccc(C(F)(F)F)c3)cn21)N[C@H](CO)C1CCCCC1` [A133-M-B61 isomer S], for which the IC50 stood at 70 nM.

Regarding `O=C(CC1CNC(=O)c2cc(-c3cn[nH]c3)cn21)NCc1ccc(F)cc1` (stereo not drawn) [Compound A144-M-B30], the IC50 amounted to 1100 nM.

On to `O=C(CC1CNC(=O)c2cc(-c3cccc(Cl)c3)cn21)Nc1ccccc1` (stereo not drawn) [Compound A150-M-B52], for which the IC50 amounted to 430 nM.

For `CN1CCN(C(=O)CC2CNC(=O)c3cc(-c4cc(F)ccc4F)cn32)C(c2ccccc2)C1` (mixture of isomers) [Compound A158-M-B63], the IC50 was 400 nM.

As for `COC(=O)c1cccc(-c2cc3n(c2)C(CC(=O)NCc2ccccc2)CNC3=O)c1` (stereo not drawn) [Compound A142-M-B14], the IC50 is 4830 nM.

In the case of `CC(C)CCNC(=O)CC1CNC(=O)c2cc(-c3cccc(F)c3)cn21` (stereo not drawn) [Compound A127-M-B32], the IC50 worked out at 610 nM.

Take `O=C(CC1CNC(=O)c2cc(-c3ccsc3)cn21)NCc1cccc(F)c1` (stereo not drawn) [Compound A33-M-B30]: the half-inhibitory concentration (IC50) came to 580 nM.

Take `O=C(CC1CNC(=O)c2cc(-c3cccc(F)c3)cn21)NCc1ccccc1` (stereo not drawn) [Compound A127-M-B14]: the IC50 stood at 180 nM.

In the case of `O=C(C[C@@H]1CNC(=O)c2cc(-c3cccc(C(F)(F)F)c3)cn21)N[C@H](CO)c1ccccc1` [A133-M-B62 isomer R], the IC50 amounted to 4830 nM.

On to `CN1CCN(C(=O)CC2CNC(=O)c3cc(-c4cccc(C(F)(F)F)c4)cn32)C(c2ccccc2)C1` (mixture of isomers) [Compound A133-M-B63], for which the IC50 came to 2540 nM.

In the case of `CC(C)CCNC(=O)CC1CNC(=O)c2cc(-c3cccc(Cl)c3)cn21` (stereo not drawn) [Compound A150-M-B32], the IC50 was found to be 230 nM.

Turning to `O=C(C[C@@H]1CNC(=O)c2cc(-c3cc(F)ccc3F)cn21)N[C@H](CO)C1CCCCC1` [A158-M-B61 isomer R], the IC50 was determined as 860 nM.

With `O=C(CC1CNC(=O)c2cc(-c3ccc(F)c(F)c3)cn21)NCc1ccccc1` (stereo not drawn) [Compound A139-M-B14], the IC50 is 220 nM.

With `COCCCNC(=O)CC1CNC(=O)c2cc(-c3cccc(Cl)c3)cn21` (stereo not drawn) [Compound A150-M-B42], the IC50 was determined as 590 nM.

Take `O=C1NCC(CC(=O)N2CCCCCC2)n2cc(-c3cccc(Cl)c3)cc21` (stereo not drawn) [Compound A150-M-B45]: the IC50 stood at 580 nM.

Take `O=C(CC1CNC(=O)c2cc(-c3cccc(C(F)(F)F)c3)cn21)NCc1ccccc1` (stereo not drawn) [Compound A133-M-B14]: the IC50 was 810 nM.

On to `O=C(CC1CNC(=O)c2cc(-c3cccc(Cl)c3)cn21)NCc1ccccc1` (stereo not drawn) [Compound A150-M-B14], for which the IC50 came to 140 nM.

For `O=C(CC1CNC(=O)c2cc(-c3ccc(F)cc3)cn21)NCC1CCCCC1` (stereo not drawn) [Compound A129-M-B22], the IC50 turned out to be 130 nM.

For the compound `O=C(CC1CNC(=O)c2cc(-c3ccccc3F)cn21)NCc1ccco1` (stereo not drawn) [Compound A128-M-B40], the IC50 is 250 nM.

Consider `O=C(CC1CNC(=O)c2cc(-c3ccccc3F)cn21)NCc1cccc(F)c1` (stereo not drawn) [Compound A128-M-B30], for which the IC50 is 270 nM.

As for `NCC(NC(=O)CC1CNC(=O)c2cc(-c3cc(F)ccc3F)cn21)c1ccccc1` (stereo not drawn) [A158-M-B65 isomer S], the IC50 is 30 nM.

As for `O=C(CC1CNC(=O)c2cc(-c3ccccc3F)cn21)NCc1ccccc1` (stereo not drawn) [Compound A128-M-B14], the IC50 is 200 nM.

Turning to `O=C(CC1CNC(=O)c2cc(-c3cccc(F)c3)cn21)NCc1cccc(F)c1` (stereo not drawn) [Compound A127-M-B30], the IC50 turned out to be 190 nM.
